Values quoted from earlier work as cited in the CATMoS acute toxicity set (Mansouri et al. 2021).
Where “and” joins values, the source holds several entries; their conditions need not be identical. Equal values may be shown once.

Assay: rat acute oral toxicity
Conditions: in vivo
Source text: […]The data set underlying the modeling effort for this project was initially compiled by NICEATM and U.S. EPA’s CCTE. Briefly, LD50 data were collected from rat acute oral systemic toxicity tests, including limit tests, ranges/confidence intervals, and discrete LD50 values. The full data set included 21,200 LD50 entries for 15,688 substances. […] Data were reviewed to ensure that LD50 values with obvious errors in the extracted data such as unit conversion errors (e.g., comma and decimal separator misplacements) were either fixed or removed. After this review, 16,209 LD50 values remained. Many of the chemicals represented had multiple LD50 entries, requiring that a single representative value per Chemical Abstracts Service Registry Number (CASRN) identifier be defined to facilitate modeling efforts. Based on ATWG feedback and to define the representative LD50 as a protective value while accounting for the distribution across multiple LD50s, the median of the lowest quartile was computed using only discrete LD50 values (omitting limit test data and range and confidence interval data). A detailed summary of the data compilation is available online on the NICEATM webpage dedicated to the collaborative modeling project (NTP 2020).
[…][…] For categorical designations, limit test and range/confidence interval LD50 data were integrated wherever possible. As such, the number of chemicals with end point values/calls varies across the modeling end points (Table 3) based on whether chemicals had representative LD50 values and/or other data. If a chemical had both, the representative value was used to determine categorical calls rather than limit test data. Some data were useable only for certain end points and categories depending on the thresholds. For example, ranges that spanned multiple hazard categories were considered only for the binary (very toxic/nontoxic) end points and omitted from rendering a determination for hazard category assignment.
[…]The final data set comprising 11,992 chemicals was split into training and evaluation sets […], respectively. This process was performed semirandomly by ordering chemicals based on the five end points (categorical and continuous LD50 values) and partitioning every fourth record into the evaluation set accordingly. This approach was taken to ensure an equivalent distribution of the LD50 values and the different hazard categories between the training and the evaluation sets without supervised sampling of the chemicals based on structures (Figure 1A). The sources of the chemical structures were also kept equivalent between the two sets, with chemical structures obtained from DSSTox, being the highest quality, representing over 75% of each set (Figure 1B).

C=CCN(CC=C)N=O
LD50: 800 mg/kg

O=S(=O)(O)c1ccc(N=Nc2ccc(N=Nc3c(O)ccc4ccccc34)cc2)cc1
LD50: 7740 mg/kg

CNC(=O)Oc1cccc(N=CN(C)C)c1
LD50: 20 mg/kg

CC(Oc1ccc2ccccc2c1)C(O)=Nc1ccccc1 (stereo not given)
LD50: 15000 mg/kg

CCCCCOc1ccc(Br)cc1COCCN1CCOCC1
LD50: 1200 mg/kg

CN(C)C(=O)Nc1cccc(OC(=O)NC(C)(C)C)c1
LD50: 3000 mg/kg

OCC1OC(n2cnc3c(S)ncnc32)C(O)C1O (stereo not given)
LD50: 900 mg/kg

CCC#N
LD50: 39 mg/kg

Cc1cccc(NC(=S)N(C)C)c1
LD50: 2200 mg/kg

COC(=O)C1CCc2cc(C3CCCCC3)ccc21 (stereo not given)
LD50: 410 mg/kg and 254 mg/kg

Nc1cccc2c(Cl)ccc(Cl)c12
LD50: 3490 mg/kg

Clc1ccc(N2N=N[C@@H]3[C@@H]4C[C@@H]([C@H]5N=N[C@@H]45)[C@@H]32)cc1
LD50: 261 mg/kg

NC(=O)Nc1cccc2c3c([nH]c12)CCCC3
LD50: 2770 mg/kg

Nc1cc(Cl)c(N)c(Cl)c1
LD50: 700 mg/kg

COC(=O)C1=C(C)NC(C)=C(C(=O)OC)C1c1ccccc1[N+](=O)[O-]
LD50: 1020 mg/kg

O=C(CCCl)OC1=C(OC(=O)CCCl)C(=O)OC1=O
LD50: 7000 mg/kg

Brc1ccccc1
LD50: 2380 mg/kg

C[N+](C)(C)CCOC(N)=O
LD50: 40 mg/kg

C=CCN1CC[C@]23c4c5ccc(O)c4O[C@H]2[C@@H](O)C=C[C@H]3[C@H]1C5
LD50: 1150 mg/kg

C=CCN1CCC23CCCCC2C1Cc1ccc(O)cc13 (stereo not given)
LD50: 850 mg/kg

O=c1[nH]c2cc(Br)ccc2o1
LD50: 1050 mg/kg

CNCCCN1c2ccccc2CCc2ccccc21
LD50: 375 mg/kg and 871 mg/kg

C=C(C#N)C(=O)OC
LD50: 1600 mg/kg

CN(C)C(=O)n1c(Br)nc(Br)c1Br
LD50: 50 mg/kg

OC1(c2ccc(Cl)c(C(F)(F)F)c2)CCN(CCCC(c2ccc(F)cc2)c2ccc(F)cc2)CC1
LD50: 160 mg/kg

ClC(Cl)c1cccc(Oc2ccccc2)c1
LD50: 6000 mg/kg

O=C1NC(=O)C(c2ccccc2)(c2ccccc2)N1S(=O)(=O)c1ccccc1
LD50: 1700 mg/kg

C(=NC1CCCCC1)=NC1CCCCC1
LD50: 400 mg/kg

CN(C)C(=O)c1cccc(-c2ccccc2)c1O
LD50: 1900 mg/kg

CCCCCCCCC(CC=CCl)CCCN (stereo not given)
LD50: 1320 mg/kg

CCCCOCCOCC
LD50: 2830 mg/kg

O=Cc1ccc(O)cc1O
LD50: 400 mg/kg

CC(C)=CC1C(C(=O)Cl)C1(C)C (stereo not given)
LD50: 400 mg/kg

COc1ccccc1OC
LD50: 890 mg/kg

CC(C)(C)N1CCC(c2ccccc2)(c2ccccc2)CC1
LD50: 165 mg/kg

CC(CN)NCCO (stereo not given)
LD50: 4920 mg/kg

CCOC(=S)SCSSCP(=O)(OCC)OCC
LD50: 14 mg/kg

CCCCC(CC)COCCC(=O)O (stereo not given)
LD50: 3730 mg/kg

CC(CC1c2ccccc2CCc2ccccc21)CN(C)C (stereo not given)
LD50: 700 mg/kg

CC1(C)CCC(NC(=O)[C@@H](N)CCC(=O)O)CC1
LD50: 1430 mg/kg

N#CC(F)(F)C(F)(F)C(F)(F)C(F)(F)C#N
LD50: 2920 mg/kg

C=CCN(CC=C)C(=O)CCl
LD50: 700 mg/kg

Clc1ccc2ocnc2c1
LD50: 650 mg/kg

CC(C)c1ccc(CO)cc1
LD50: 1020 mg/kg

S=C(NNc1ccccc1)NNc1ccccc1
LD50: 1500 mg/kg

Clc1nc(C(Cl)Cl)c(Cl)c(Cl)c1Cl
LD50: 1780 mg/kg

CCOP(=S)(OCC)SCn1nc(C)ccc1=O
LD50: 45 mg/kg

CC(C)(O)CCc1ccccc1
LD50: 2200 mg/kg

c1ccc(C2CN3CCSC3=N2)cc1 (stereo not given)
LD50: 180 mg/kg and 480 mg/kg

COP(=S)(OC)SC1CCSc2ccccc21 (stereo not given)
LD50: 5 mg/kg

Cc1cccc(C)c1NC(=O)CC12CCCN1CCC2
LD50: 255 mg/kg

Cc1c(N(C)CS(=O)(=O)O)c(=O)n(-c2ccccc2)n1C
LD50: 3000 mg/kg

CCOC(=O)Cc1cccc2ccccc12
LD50: 3580 mg/kg

FC(F)(F)c1nc2ccc(I)cc2[nH]1
LD50: 96 mg/kg

CC(Cc1ccc2c(c1)OCO2)NCC(O)c1ccc(O)c(O)c1 (stereo not given)
LD50: 865 mg/kg

CC(C)(C)C(O)/C(=C\c1ccc(Cl)cc1)n1cncn1 (stereo not given)
LD50: 1790 mg/kg

CNC1=Nc2ccc(Cl)cc2C(c2ccccc2)=[N+]([O-])C1
LD50: 537 mg/kg

C=CCOc1ccccc1C(=O)N(CC)CC
LD50: 325 mg/kg

Cc1ccc(NN)cc1
LD50: 262 mg/kg

CCOP(=O)(OCC)O/C(=C\Cl)c1cc(Cl)ccc1Cl
LD50: 35 mg/kg
